Data from PMC4922569, “Antifibrotic Effects of the Dual CCR2/CCR5 Antagonist Cenicriviroc in Animal Models of Liver and Kidney Fibrosis” (PLoS ONE, 2016).

Tests used:
[1] = test system: monocyte/macrophage recruitment; assay: Thioglycollate (TG)-induced mouse model of peritonitis: peritoneal lavage monocyte/macrophage counts; assay type: in vivo; conditions: dexamethasone 1 mg/kg QD PO Days 1-5; 48 h post-TG
Protocol: A murine thioglycollate (TG)-induced model of peritonitis, where acute inflammation induced by intraperitoneal (IP) injection of TG results in a rapid increase in monocyte/macrophage migration into the peritoneal cavity, was employed to assess the effects of CVC on cell recruitment in vivo. The protocol was approved by the IACUC of Charles River Laboratories Preclinical Services, Montreal (PCS-MTL). The care and use of animals was conducted in accordance with the guidelines of the US National Research Council and the Canadian Council on Animal Care.
Male C57BL/6 mice (n = 44; 8–10 weeks of age; Charles River Laboratories, Canada) were allocated to receive treatments via oral gavage (PO) on Days 1–5 in the following groups: non-disease control, vehicle control twice daily (BID), CVC 5 mg/kg/day (CVC5) BID, CVC 20 mg/kg/day (CVC20) BID, CVC 100 mg/kg/day (CVC100) BID, CVC20 QD, and positive control dexamethasone (corticosteroid known to reduce inflammation in a variety of animal models) 1 mg/kg QD (S1 Table). On Day 4, peritonitis was induced via IP injection of TG 3.85% (1 mL/animal) 2 hours post-dose in all groups except non-disease controls. Study endpoints included: peritoneal lavage cell counts and pharmacokinetic (PK) evaluation. Animals were sacrificed 48 hours post-TG injection by isoflurane inhalation, and peritoneal lavage and blood samples (0.7 mL) were collected. Differential cell counts were assessed in peritoneal lavage samples using an Advia® Hematology System (Siemens Healthcare Diagnostics, USA) with multispecies software and an analysis software designed for mouse peritoneal fluid on Advia® 120 (LabThruPut, USA). A 0.3 mL aliquot of the blood sample was processed to plasma for PK analysis.
(§1) In the peritonitis mouse model, one-way analysis of variance with post-hoc Dunnett’s test was performed, using GraphPad Prism® (GraphPad Software, Inc., USA), on differential cell counts obtained from lavage in treatment groups versus the vehicle-control group. For the ex vivo migration of mouse monocytes, statistical significance was determined by a Student’s t test.

[2] = test system: CCL2-mediated chemotaxis of activated murine macrophages (F4/80+/CD11b+); assay: Ex vivo CCL2-induced chemotaxis of activated mouse macrophages (Transwell); assay type: cell-based; conditions: CCL2-stimulated cells (1 nM CCL2), no CVC, 2 hours
Protocol: Mouse monocyte migration in response to CVC treatment was assessed ex vivo in triplicate. TG was injected intraperitoneally into male C57BL/6 mice (n = 3; 8–10 weeks of age; Jackson Laboratory, USA) and activated macrophages were collected 48 hours later by peritoneal lavage. Chemotaxis was assayed using a Transwell® Chamber (Costar, USA) with a 5 μm-pore size polycarbonate filter, as previously described. Briefly, cells were incubated for 2 hours in the presence of 1 nM CCL2 and/or 1 μM CVC (dissolved in dimethyl sulfoxide with 0.5% acetic acid and diluted 1:1000 with serum-free Roswell Park Memorial Institute-1640 medium and 0.5% bovine serum albumin). Cells were harvested from the lower compartment and analyzed by flow cytometry to enumerate F4/80^+CD11b^+ macrophages using a 3-laser BD FACSCanto™ (BD Biosciences, Canada). Results were analyzed using FlowJo software (Tree Star Inc., USA).
as §1

Row | Compound | Decrease in peritoneal lavage monocyte/macrophage counts compared to vehicle control [1] [%] | Average fold change in migrating cells (±SD) compared to untreated and unstimulated cells [2] [fold]
1 | C[C@@H]1C[C@H]2[C@@H]3CCC4=CC(=O)C=C[C@]4(C)[C@@]3(F)[C@@H](O)C[C@]2(C)[C@@]1(O)C(=O)CO [dexamethasone, reference compound] | 38.1 | 
2 | CCL2: C-C chemokine ligand type 2, chemotaxis stimulus for activated macrophages [reference compound] |  | 4.6±0.9
